Test results published in the supplement of paper PMC10307832.

Columns and labels:
Assay in all cases: relative viability (nuclei count vs DMSO), 5 days (fraction); higher = more cells survive
BI-D1870 + Vorinostat = compound: CC(C)CCN1c2nc(Nc3cc(F)c(O)c(F)c3)ncc2N(C)C(=O)C1C [BI-D1870] + O=C(CCCCCCC(=O)Nc1ccccc1)NO [Vorinostat] (partner 1 µM)
Summary of the method: (§1)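 Five library-drug doses in √10 steps were combined with a fixed anchor-drug dose, or a single drug was given alone, by pin tool to lung cancer cell lines in 1536-well plates the day after seeding. Nuclei were stained and counted after 5 days. Relative viability is the nuclei count in treated wells over that in vehicle wells, taken as the median of duplicate plates.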

Zebularine + Luminespib = compound: O=c1ncccn1[C@@H]1O[C@H](CO)[C@@H](O)[C@H]1O [Zebularine] + CCNC(=O)c1noc(-c2cc(C(C)C)c(O)cc2O)c1-c1ccc(CN2CCOCC2)cc1 [Luminespib] (partner 0.01 µM)
Summary of the method: as §1

Zebularine + Tozasertib = compound: O=c1ncccn1[C@@H]1O[C@H](CO)[C@@H](O)[C@H]1O [Zebularine] + Cc1cc(Nc2cc(N3CCN(C)CC3)nc(Sc3ccc(NC(=O)C4CC4)cc3)n2)n[nH]1 [Tozasertib] (partner 0.1 µM)
Summary of the method: as §1

Zebularine + Olaparib = compound: O=c1ncccn1[C@@H]1O[C@H](CO)[C@@H](O)[C@H]1O [Zebularine] + O=C(c1cc(Cc2n[nH]c(=O)c3ccccc23)ccc1F)N1CCN(C(=O)C2CC2)CC1 [Olaparib] (partner 8 µM)
Summary of the method: as §1

| Cell Line | relative viability (BI-D1870 + Vorinostat; first compound 0.04 µM) | relative viability (BI-D1870 + Vorinostat; first compound 0.1265 µM) | relative viability (BI-D1870 + Vorinostat; first compound 0.4 µM) | relative viability (BI-D1870 + Vorinostat; first compound 1.265 µM) | relative viability (BI-D1870 + Vorinostat; first compound 4 µM) | relative viability (Zebularine + Luminespib; first compound 1 µM) | relative viability (Zebularine + Luminespib; first compound 3.162 µM) | relative viability (Zebularine + Luminespib; first compound 10 µM) | relative viability (Zebularine + Luminespib; first compound 31.62 µM) | relative viability (Zebularine + Luminespib; first compound 100 µM) | relative viability (Zebularine + Tozasertib; first compound 1 µM) | relative viability (Zebularine + Tozasertib; first compound 3.162 µM) | relative viability (Zebularine + Tozasertib; first compound 10 µM) | relative viability (Zebularine + Tozasertib; first compound 31.62 µM) | relative viability (Zebularine + Tozasertib; first compound 100 µM) | relative viability (Zebularine + Olaparib; first compound 1 µM) | relative viability (Zebularine + Olaparib; first compound 3.162 µM) | relative viability (Zebularine + Olaparib; first compound 10 µM) | relative viability (Zebularine + Olaparib; first compound 31.62 µM) | relative viability (Zebularine + Olaparib; first compound 100 µM) |
| --- | --- | --- | --- | --- | --- | --- | --- | --- | --- | --- | --- | --- | --- | --- | --- | --- | --- | --- | --- | --- |
| NCI-H596 | 0.666 | 0.591 | 0.65 | 0.59 | 0.511 | 0.897 | 0.914 | 0.662 | 1.13 | 0.715 | 0.847 | 1.1 | 0.618 | 0.958 | 0.845 | 0.7 | 0.746 | 0.713 | 0.591 | 0.547 |
| H3255 | 0.88 | 0.816 | 0.761 | 0.889 | 0.802 | 1.04 | 0.816 | 0.797 | 0.972 | 0.909 | 0.542 | 0.61 | 0.271 | 0.106 | 0.627 | 0.624 | 0.597 | 0.502 | 0.577 | 0.513 |
| NCI-H647 | 0.666 | 0.346 | 0.669 | 0.536 | 0.335 | 0.242 | 0.173 | 0.141 | 0.0957 | 0.0958 | 0.284 | 0.353 | 0.152 | 0.144 | 0.265 | 0.506 | 0.291 | 0.171 | 0.15 | 0.165 |
| NCI-H2023 | 0.795 | 0.507 | 0.571 | 0.643 | 0.457 | 0.942 | 1.04 | 0.301 | 0.448 | 0.174 | 0.462 | 0.319 | 0.242 | 0.283 | 0.169 | 0.512 | 0.452 | 0.392 | 0.256 | 0.244 |
| NCI-H23 | 0.555 | 0.619 | 0.489 | 0.448 | 0.202 | 0.217 | 0.221 | 0.21 | 0.211 | 0.199 | 0.36 | 0.382 | 0.234 | 0.462 | 0.284 | 0.318 | 0.132 | – | 0.276 | 0.258 |
| NCI-H1944 | 0.894 | 0.5 | 0.484 | 0.57 | 0.405 | 0.837 | 0.707 | 0.718 | 0.711 | 0.533 | 0.274 | 0.268 | 0.213 | 0.254 | 0.234 | 0.449 | 0.474 | 0.366 | 0.34 | 0.246 |
| NCI-H1793 | 0.914 | 0.718 | 0.615 | 1.04 | 0.606 | 0.196 | 0.197 | – | 0.203 | 0.142 | 0.401 | 0.354 | – | 0.206 | 0.174 | 1.02 | 0.906 | 0.37 | 0.333 | 0.27 |
| NCI-H520 | 0.716 | 0.755 | 0.649 | 0.464 | 0.198 | 0.262 | 0.261 | 0.186 | 0.246 | 0.192 | 0.43 | 0.561 | 0.353 | 0.269 | 0.25 | 0.337 | 0.299 | 0.319 | 0.243 | 0.192 |
